{"source": "patent US7345065B2", "about": "“Methods and compositions for alleviating pain” (Allergan, Inc., priority 2002, dated 2008)", "key": {"[1]": {"tested_on": "α-2B heterozygous (−/+) and homozygous (−/−) knockout mice", "assay": "Sulprostone sensitized pain (allodynia), α-2B knockout mice", "assay_type": "in vivo, mouse", "conditions": "intraperitoneal; heterozygous and homozygous α-2B knockout; clonidine 500 ug/kg, Compound 3 100 ug/kg"}, "Chung model rats": {"tested_on": "Chung model rats", "assay": "Chung rat nerve ligation model, tactile allodynia reversal (Von Frey)", "assay_type": "in vivo", "description": "The Chung rat nerve ligation model is a well accepted model of peripheral neuropathic pain. In the Chung model, partial ligation of left spinal nerves L-5 and L-6 produces a long-lasting hypersensitivity to light touch on the affected left foot. The hypersensitivity is similar to pain experienced by humans with the neuropathic condition of causalgia (Kim and Chung, Pain 50:355-363 (1992)).\nChung rat surgeries of about 20 minutes duration were performed essentially as follows. Male Sprague-Dawley rats weighing 100 to 120 grams were anesthetized with isofluorane. After shaving and preparing the surgical site with betadine, an incision was made from thoracic vertebra XIII down toward the sacrum, and muscle separated from spinal vertebra (left side) at the L4-S2 levels. The L6 vertebra were located, and the transverse process carefully removed with a small rongeur to visually identify the L4-L6 spinal nerves. L5 and L6 spinal nerves were isolated and tightly ligated with 6-0 silk thread; the wound was sutured after complete hemostasis was confirmed. A small amount of antibiotic ointment was applied to the incised area before transferring the animals to a plastic recovery cage under a regulated heat-temperature lamp. Animals were not treated with any topical or local anesthetics post-operatively.\nAssessment of pain in Chung model rats was performed by applying a light tactile stimulus (Von Frey hair) to the affected surgical paw as follows. A 50% pain threshold was established by applying the Von Frey hair in an up-and-down manner to the plantar surface of the surgical paw with just enough force to bend them. A positive response was recorded if the paw was withdrawn sharply. The 50% paw withdrawal threshold was determined using the method of Dixon et al., Ann. Rev. Pharmacol. Toxicol. 20:441-462 (1980). The post-drug threshold was compared to the pre-drug threshold, and the precent reversal of tactile sensitivity calculated based on a normal threshold of 15.1 grams. The results were expressed as % allodynia reversal, reflecting the percentage reversal of pain threshold relative to a normal rat (100%).\nChung surgeries were performed, and pain assessed as described above. Drugs administered via osmotic minipump were delivered as follows. ALZET (Cupertino, Calif.) minipumps (Model #1007D) were implanted subcutaneously on the rats' back between the shoulder blades. Pumps were filled with test solution prior to surgery, which was performed with aseptic procedures and sterilized surgical instruments. After anesthetization with isoflorane and midline incision between the shoulder blades through the muscle, a subcutaneous pocket was exposed. The minipump was inserted into the exposed pocket, before stapling the wounds closed and allowing animals to recover under a warming light.\nALZET osmotic minipumps (model 1007D) hold a total volume of 100 μl and delivered drug at the set rat of 0.5 μl per hour the indicated time period. Drugs were administered at the indicated rate, typically 100 μg/hr/kg, dissolved in 50% DMSO, with the concentration of drug in the pump varied depending on animal weight. […]"}, "[2]": {"assay": "Plasma concentration by LC-MS/MS during and after minipump dosing", "assay_type": "in vivo, rat", "conditions": "0.1 mg/kg/hour minipump for seven days", "description": "To determine whether the persistent reversal of allodynia was due to the continued presence of drug in the animals, rats were treated for seven days using a subcutaneous osmotic minipump with 0.1 mg/kg/hour Compound 8. Plasma concentrations of Compound 8 were sampled on days 3, 6, 8, 10 and 14 following pump insertion and determined by liquid chromatography-mass spectrometry/mass spectrometry (LC-MS/MS)."}, "Bennett model rats": {"tested_on": "Bennett model rats", "assay": "Bennett partial sciatic nerve ligation model, cold allodynia", "assay_type": "in vivo, rat", "conditions": "osmotic minipump 0.1 mg/hr/kg for four days; during treatment and more than three weeks following pump removal", "description": "The α-2B/C selective agonist Compound 8 was tested in a second rat nerve injury model of neuropathic pain, the Bennett partial sciatic nerve ligation model. This rat model produces a peripheral mononeuropathy with disorders of pain sensation similar to those seen in man (Bennett and Xie, Pain 33:87-107 (1988)). In the Bennett model, nerve injury is created by loosely tying constrictive ligatures around the sciatic nerve, causing degeneration of nerve distal to the constriction. Allodynia and hyperalgesia are produced by the constriction injury in addition to spontaneous pain (Bennett and Xie, supra, 1988). In particular, cold allodynia, the sensation of pain from cold stimuli, is one manifestation of altered pain sensation: Bennett model animals frequently lift the paw of the surgical limb off the cold surface, in contrast to control animals.\nBennett surgeries of about 20 minute duration were performed as follows. […]\nChronic drug administration was achieved via an osmotic minipump, which was implanted subcutaneously on the back of the rat one week after the Bennett surgery as described above. […] To assess response to thermal stimuli, rats were placed under a clear plastic chamber (18 cm×29 cm×12.5 cm) on a chilled (0-4° C.) metal floor, which is not noxious to a normal animal, and the time that the surgical paw was raised off of the cold floor recorded over a 5 minute period. […]"}, "[3]": {"tested_on": "Sprague Dawley rats, normal and sensitized", "assay": "Rat model of irritable bowel syndrome (chronic visceral hypersensitivity), EMG response to colorectal distension", "assay_type": "in vivo", "description": "A well-accepted model of chronic visceral hypersensitivity is described in Al-Chaer et al., Gastroenterology 119:1276-85 (2000). In brief, colons of neonatal male Sprague Dawley rats were sensitized by repeated inflation of a colonic balloon on postnatal days 8 to 21, with colonic balloons inflated to pressures ranging from 20-80 mm Hg. Three months later, the abdominal withdrawal reflex (AWR) response of the adult rats to graded colorectal distension (CRD) was quantified by electromyography (EMG) recording from the abdominal wall muscle. […] Each level of CRD was administered for 20 seconds every four minutes and repeated for a total of five times.\nGroups of 8-10 normal and sensitized adult Sprague Dawley rats (approximately 3 months old) were implanted with subcutaneous minipumps to deliver either 50% DMSO or Compound 8 in 50% DMSO at a dose of 100 ug/kg/hr over a period of 7 days. The abdominal withdrawal reflex to a graded series of colorectal distensions (20, 40, 60, 80 mm Hg) was measured by abdominal EMG recording prior to pump implantation, on days 2 and 5 of the subcutaneous infusion, and 2 days, 1 week, 2 weeks, and 4 weeks after the pumps were removed."}, "[4]": {"tested_on": "sulprostone-sensitized wild type mice", "assay": "Sulprostone sensitized pain (allodynia), wild type mice", "assay_type": "in vivo, mouse", "description": "Non-specific α-adrenergic agonists were assayed in α-2A receptor deficient (“knockout”) mice (Hein et al., supra, 1999) using a mouse model of sulprostone sensitized pain in which allodynia is evoked by intrathecal administration of a selective prostaglandin E2 receptor agonist to conscious mice essentially as described in Minami et al., Pain 57:217-223 (1994). In this model, the pain response to stroking the flank with a paint brush is scored eight times over a 35 minute period starting 15 minutes following spinal administration of sulprostone and intrathecal or intraperitoneal administration of drug or control vehicle. Sulprostone elicits a “pain” score of 12-13 on a 16-point scale.\n(§1) Assays for allodynia in wild type and α-2A knockout mice were performed essentially according to the method of Yaksh and Harty, J. Pharmacology Exp. Ther. 244: 501-507 (1998). In brief, mice were divided into groups of 5-6 animals. Control mice were administered 5 ul DMSO while treated animals were injected with 5 ul DMSO containing various doses of the indicated agent. After intrathecal injection, each mouse was placed in an individual 13×8.5×13 cm Plexiglass enclosure with wood chips on the floor for observation. Allodynia was assessed once every five minutes over a 50 minute time period, with response recorded eight times in the 15 to 50 minute time frame. Allodynia was assessed by light stroking of the flank of the mice with a small paintbrush and ranked as follows: 0, no response; 1, mild squeaking with attempts to move away from the stroking probe; and 2, vigorous squeaking evoked by the stroking probe, biting at the probe and strong efforts to escape. The eight scores for each animal were added together, and the mean for the group determined to give an average total score."}, "[5]": {"tested_on": "sulprostone-sensitized α-2A knockout mice", "assay": "Sulprostone sensitized pain (allodynia), α-2A knockout mice", "assay_type": "in vivo, mouse", "description": "as §1, with “In” for “Assays for allodynia in wild type and α-2A knockout mice were performed essentially according to the method of Yaksh and Harty, J. Pharmacology Exp. Ther. 244: 501-507 (1998). In”"}, "mice": {"tested_on": "mice", "assay": "Sedative effects in mice (exploratory activity, digicom analyzer chamber)", "assay_type": "in vivo, mouse", "conditions": "intraperitoneal, wild type mice; clonidine 500 ug/kg, Compound 3 100 ug/kg", "description": "(§2) Sedative effects were analyzed by assessing exploratory behavior in a darkened chamber as follows. Mice were weighed, and test compound administered by intrathecal injection in a volume of 5 μl or by intraperitoneal injection in 1 ml/kg volume at the indicated dose. At predetermined time points corresponding with analgesia measurements 5 to 30 minutes following the injection, the animal's activity was determined automatically by placing the mouse in a digicom analyzer chamber (Omnitech Electronic; Columbus, Ohio). The digicom analyzer chamber contains photocell beams criss-crossing the box that are broken as the animal moves around; the chamber was modified for mice by raising the level of the floor. Computer analysis of total animal movement proceeded over a 5-minute time period. Any given animal was used at most twice for this protocol, as learned behavior can affect the data. All animals received at least two weeks rest between studies."}, "Male Sprague-Dawley rats": {"tested_on": "Male Sprague-Dawley rats", "assay": "Sedative effects in rats (total activity, digicom analyzer chamber)", "assay_type": "in vivo, rat", "description": "as §2\nMale Sprague-Dawley rats that were not subject to surgery were used for assessment of sedative effects. Rats were weighed and compound administered by intravenous or intraperitoneal injection or given orally at the indicated dose. At a predetermined time point 5 to 30 minutes following injection, the animal's activity was determined automatically by placing the rat in a digicom analyzer chamber (Omnitech Electronic). Total activity was analyzed as described above."}, "[6]": {"conditions": "subcutaneous osmotic minipump 0.1 mg/kg/hour, seven days"}}}
{"smiles": "OCCNC(=S)NCc1cccc(Cl)c1F", "note": "[Compound 8]", "values": [{"measurement": "analgesic effect in α-2B knockout mice", "setting": "[1]", "value": "failed to show analgesic activity"}, {"measurement": "allodynia during follow-up testing", "setting": "Chung model rats; after oral 0.3 mg/kg three times a day for three days", "value": "allodynia did not increase during a more than three week period of follow-up testing"}, {"measurement": "allodynia on the morning of day 4", "setting": "Chung model rats; oral 0.3 mg/kg three times a day for three days", "value": "allodynia was dramatically reduced"}, {"measurement": "allodynia prior to the first dose of the morning, days 2 and 3", "setting": "Chung model rats; oral 0.3 mg/kg three times a day for three days, about 14 hours after the last dose", "value": "complete tactile allodynia"}, {"measurement": "reversal of allodynia", "setting": "Chung model rats; oral gavage, three doses of 0.3 mg/kg per day for three consecutive days", "value": "70-80%"}, {"measurement": "allodynia alleviated during the period of drug treatment", "setting": "Chung model rats; [6]", "value": "90-100%"}, {"measurement": "persistence of analgesic effects after treatment", "setting": "Chung model rats; [6]", "value": "continued for over a month after treatment was concluded"}, {"measurement": "plasma drug level, day 10", "setting": "[2]; day 10 following pump insertion", "value": "minimal drug levels were detected"}, {"measurement": "plasma drug level, day 14", "setting": "[2]; day 14 following pump insertion", "value": "no drug remained in the plasma"}, {"measurement": "cold allodynia", "setting": "Bennett model rats", "value": "completely alleviated"}, {"measurement": "EMG response, non-sensitized control rats", "setting": "[3]; 100 ug/kg/hr subcutaneous minipump, 7 days", "value": "did not change significantly from pre-treatment levels"}, {"measurement": "pain (EMG intensity) in sensitized rats after treatment", "setting": "[3]; 100 ug/kg/hr subcutaneous minipump, 7 days, CRD 20-80 mm Hg", "value": "0 to 1.5"}, {"measurement": "increased EMG response in sensitized rats", "setting": "[3]; 100 ug/kg/hr subcutaneous minipump, 7 days, during and following treatment", "value": "completely alleviated"}, {"measurement": "return of colorectal allodynia and hyperalgesia", "setting": "[3]; 4 weeks following cessation of drug treatment", "value": "did not return during the time period tested"}]}
{"smiles": "Clc1cccc(Cl)c1N=C1NCCN1", "note": "[clonidine, reference compound]", "values": [{"measurement": "analgesia", "setting": "[4]; intraperitoneal injection, wild type mice (Compound 1 30 μg/kg; Compound 2 100 μg/kg)", "value": "failed to produce analgesia separable from sedation"}, {"measurement": "sulprostone-induced tactile allodynia", "setting": "[4]; intraperitoneal, wild type mice, clonidine 500 ug/kg, Compound 3 100 ug/kg", "value": "alleviated sulprostone-induced tactile allodynia"}, {"measurement": "analgesia", "setting": "[4]; intrathecal injection (Compound 1: 1 μg), wild type mice", "value": "significant analgesia separable from sedation"}, {"measurement": "analgesia", "setting": "[5]; intraperitoneal, α-2A knockout mice (Compound 1 30 μg/kg; Compound 2 and PAC 100 μg/kg)", "value": "significant analgesia without sedation"}, {"measurement": "analgesia", "setting": "[5]; intrathecal injection (Compound 1: 1 μg), α-2A knockout mice", "value": "did not produce analgesia"}, {"measurement": "analgesic effect in α-2B knockout mice", "setting": "[1]", "value": "alleviated the analgesia in both heterozygous and homozygous α-2B knockout strains"}, {"measurement": "concomitant sedation", "setting": "mice", "value": "produced concomitant sedation"}, {"measurement": "analgesia when co-administered with 0.3 μg/kg Compound 13", "setting": "Chung model rats; intraperitoneal, Chung rats, clonidine 30 μg/kg, Compound 2 100 μg/kg", "value": "dramatic allodynia reversal"}, {"measurement": "analgesia", "setting": "Chung model rats; intrathecal injection, Chung rats", "value": "significant analgesia separable from sedation"}, {"measurement": "sedation (activity)", "setting": "Male Sprague-Dawley rats; clonidine 30 μg/kg intraperitoneal", "value": "reduces activity"}, {"measurement": "sedation", "setting": "Male Sprague-Dawley rats; clonidine 100 μg/kg intraperitoneal", "value": "extremely sedating"}]}
